Where a SMILES comes first, the peptide text is derived from it.
Legend:
[1] = tested on: T cells; conditions: human, in vivo
[2] = Phase II clinical trial with dnaJP1 in RA: safety, adverse events; assay type: in vivo, human; conditions: 25 mg per os daily, 168 days
Method: A double-blinded, placebo-controlled ITT trial was designed to test for the first time if immune tolerization to dnaJp1 observed in the trial translated into clinical amelioration of the disease. dnaJP1 was tested as a first line inducer of remission in patients with early RA.

Which results are given for `C[C@H](NC(=O)[C@H](C)NC(=O)[C@H](Cc1c[nH]cn1)NC(=O)CNC(=O)[C@H](Cc1ccc(O)cc1)NC(=O)[C@H](CCC(N)=O)NC(=O)[C@H](CC(=O)O)NC(=O)[C@H](Cc1ccc(O)cc1)NC(=O)[C@H](C)NC(=O)[C@H](C)NC(=O)[C@H](CCCNC(=N)N)NC(=O)[C@H](CCCCN)NC(=O)[C@@H](N)CCC(N)=O)C(=O)N[C@@H](Cc1ccccc1)C(=O)N[C@@H](CCC(=O)O)C(=O)O` [dnaJP1, QKRAAYDQYGHAAFE] (H-QKRAAYDQYGHAAFE-OH)?
ability of T cells to respond to the recall antigen Tetanus Toxoid [1]: remained intact; safety and tolerability [2]: safe and well tolerated
